Assay results published in patent US20240116875A1, “RATIONAL DESIGN, OPTIMIZATION, AND BIOLOGICAL EVALUATION OF NOVEL MEK4 INHIBITORS AGAINST PANCREATIC ADENOCARCINOMA” (NORTHWESTERN UNIVERSITY, priority 2022, published 2024).

What was measured:
[1] = system: JNK phosphorylation in HEK293T cells; experiment: anisomycin-induced JNK phosphorylation, western blotting, HEK293T; assay type: cell-based, human; details: anisomycin 45 minutes then compound 5 hours, increasing doses
Description: The blots are representative of at least three biological replicates.
(§1) We also examined the effects of these inhibitors on JNK phosphorylation and proliferation of two pancreatic cancer cell lines (CD18 and MiaPaCa2).
(§2) Human pancreatic cancer cell lines (CD18/HPAF-II and MiaPaCa2) and HEK293T cells were obtained from American Type Culture Collection. All cell lines were cultured according to the manufacturer's protocol. All media contained 10% Fetal Bovine Serum (FBS) and antibiotics (100 U/mL Penicillin and 100 μg/mL Streptomycin).
(§3) Whole cell extracts of cultured cells were prepared in radioimmunoprecipitation (RIPA) lysis buffer supplemented with phosphatase and protease inhibitors (Calbiochem). Protein concentration was determined by the bicinchoninic acid assay (BCA) (ThermoFisher) and separated by the SDS-PAGE technique. […] Secondary anti-mouse IgG (A4416) and anti-rabbit IgG (A6667) antibodies were purchased from Sigma-Aldrich and used a 1:4000 dilution. Images of blots were acquired on HyBlot ES Autoradiography Film (Thomas Scientific, Swedesboro, NJ, USA) following incubation with SuperSignal West Pico PLUS (ThermoFisher).

[2] = system: HEK293T cells; experiment: cell proliferation (cell count after 72 hours), HEK293T; assay type: cell-based, human; details: varying doses
Description: After 72 hours, cells were trypsinized, counted, and the cell numbers were normalized against the DMSO treatment. Mean±SD. Graphs are representative of 3 biological replicates. One-way ANOVA; ns, non-significant **, p<0.01 ***, p<0.001.
as §1, §2

[3] = system: CYP isoforms 3A4/5; experiment: CYP inhibition, 3A4/5
[4] = system: phospho-p38 MAPK in HEK293T cells; experiment: p38 MAPK phosphorylation, western blotting, HEK293T; assay type: cell-based, human; details: anisomycin pretreatment, compound 100 μM, 5 hours
Description: (§4) HSP90 was used as loading control. The blots are representative of at least three biological replicates.
We next evaluated the effects of our inhibitors on the phosphorylation activity and expression of MEK1/2, MEK3/6, and MEK7. […] We also evaluated the effects on p42/44 MAPK (ERK1/2), which functions downstream of MEK1/2.
as §3

[5] = target: CYP 2C19 (Homo sapiens, UniProt P33261); experiment: CYP inhibition, 2C19
[6] = system: JNK phosphorylation in CD18 cells; experiment: anisomycin-induced JNK phosphorylation, western blotting, CD18; assay type: cell-based, human; details: CD18, anisomycin 45 minutes then compound 5 hours
Description: as §4, §1, §2, §3

[7] = system: JNK phosphorylation in MiaPaCa2 cells; experiment: anisomycin-induced JNK phosphorylation, western blotting, MiaPaCa2; assay type: cell-based, human; details: MiaPaCa2, anisomycin 45 minutes then compound 5 hours
Description: as §4, §1, §2, §3

[8] = target: T1, BRAF (Homo sapiens, UniProt P15056); experiment: scanEDGE DiscoverX kinome-wide scan, BRAF; assay type: binding; details: 10 μM
T1 construct: purchased Eurofins DiscoverX scanEDGE
Excerpt: (§5) To compare our compounds to the rest of the MEK inhibitors discovered thus far, we turned to the DiscoverX platform (KINOMEscan®, Eurofins DiscoverX), a widely used assay for comparing selectivity across the kinome. The DiscoverX platform reports the thermodynamic Kd in order to facilitate direct comparison of inhibitor affinity across the kinome, independent of ATP concentration.

[9] = system: JNK1/2/3; experiment: scanEDGE DiscoverX kinome-wide scan, JNK1/2/3; assay type: binding; details: 10 μM
Excerpt: as §5

[10] = Log D study (BioDuro-Sundia); details: pH of 7.4

Chain of CYP 2C19 (P33261 whole entry): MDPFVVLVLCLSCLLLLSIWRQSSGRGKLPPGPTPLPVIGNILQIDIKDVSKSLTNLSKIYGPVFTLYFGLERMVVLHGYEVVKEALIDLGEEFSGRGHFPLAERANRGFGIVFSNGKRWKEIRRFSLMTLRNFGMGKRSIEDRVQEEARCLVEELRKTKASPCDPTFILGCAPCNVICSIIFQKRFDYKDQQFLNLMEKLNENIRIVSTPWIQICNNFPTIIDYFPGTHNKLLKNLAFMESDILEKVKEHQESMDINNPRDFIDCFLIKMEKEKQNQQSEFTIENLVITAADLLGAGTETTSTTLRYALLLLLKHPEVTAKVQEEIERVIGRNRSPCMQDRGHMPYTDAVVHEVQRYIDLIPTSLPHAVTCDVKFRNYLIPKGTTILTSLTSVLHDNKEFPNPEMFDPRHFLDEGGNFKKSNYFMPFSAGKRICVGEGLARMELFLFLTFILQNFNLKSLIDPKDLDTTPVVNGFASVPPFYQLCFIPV
T1 sequence (P15056 whole entry): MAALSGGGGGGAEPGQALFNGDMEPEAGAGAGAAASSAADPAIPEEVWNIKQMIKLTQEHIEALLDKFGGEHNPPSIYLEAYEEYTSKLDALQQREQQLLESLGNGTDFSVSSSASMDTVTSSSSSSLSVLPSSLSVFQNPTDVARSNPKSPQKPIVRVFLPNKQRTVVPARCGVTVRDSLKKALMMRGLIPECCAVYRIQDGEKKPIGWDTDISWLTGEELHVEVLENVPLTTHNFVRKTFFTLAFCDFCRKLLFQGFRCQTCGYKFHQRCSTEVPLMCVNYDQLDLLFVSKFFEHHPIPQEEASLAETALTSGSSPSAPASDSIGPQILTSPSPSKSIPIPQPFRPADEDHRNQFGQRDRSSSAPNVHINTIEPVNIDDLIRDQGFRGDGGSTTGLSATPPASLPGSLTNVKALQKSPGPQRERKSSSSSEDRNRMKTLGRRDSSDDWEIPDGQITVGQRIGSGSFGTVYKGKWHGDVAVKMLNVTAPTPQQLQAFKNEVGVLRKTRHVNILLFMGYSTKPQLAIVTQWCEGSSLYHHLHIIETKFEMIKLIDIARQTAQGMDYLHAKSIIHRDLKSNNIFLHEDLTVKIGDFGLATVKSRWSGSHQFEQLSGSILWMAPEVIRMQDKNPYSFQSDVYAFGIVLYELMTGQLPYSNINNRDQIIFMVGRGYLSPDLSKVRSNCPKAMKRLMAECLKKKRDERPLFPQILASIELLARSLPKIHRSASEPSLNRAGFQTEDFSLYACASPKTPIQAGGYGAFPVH

NC(=O)c1ccc(NS(=O)(=O)c2cccc(-c3n[nH]c4cc(F)ccc34)c2)cc1 [Compound 15o, 4-((3-(6-fluoro-1H-indazol-3-yl)phenyl)sulfonamido)benzamide]
effect on anisomycin-induced JNK phosphorylation [1]: attenuated anisomycin-induced INK phosphorylation in a dose-dependent manner | cell proliferation [2]: decreased. HEK293T cell proliferation in a dose-dependent manner | inhibition of CYP isoforms 3A4/5 [3]: did not inhibit | effect on anisomycin-induced p38 MAPK phosphorylation [4]: not affected | inhibition of CYP 2C19 [5]: inhibited | effect on anisomycin-induced JNK phosphorylation [6]: attenuated anisomycin-induced JNK phosphorylation | effect on anisomycin-induced JNK phosphorylation [7]: attenuated anisomycin-induced JNK phosphorylation | inhibition of BRAF [8]: did not inhibit | inhibition of JNK1/2/3 [9]: did inhibit | log D [10]: 3.22
